Test results: article PMC11648675 (Cell, 2024)
Where a SMILES comes first, the peptide text is derived from it. The star is where a group is joined. CH2Cl = ClC*

Tests used:
mouse GSDMD = assay: liposome leakage assay with mouse GSDMD; type: biochemical
[1] = test system: GSDMD KO THP-1 cells reconstituted with WT or D275A GSDMD; assay: PI uptake in GSDMD KO THP-1 cells reconstituted with WT or D275A GSDMD; type: cell-based, human; conditions: 5 or 20 μM, 1, 2 and 4 h
[2] = test system: human GSDMA, GSDMB, GSDMC, GSDME; assay: liposome leakage assay with other human gasdermins; type: biochemical; conditions: gasdermins 0.3 μM
EMT6 tumor challenge = assay: vaccination with drug-treated EMT6 cells and EMT6 challenge; type: in vivo, mouse; conditions: for mice remaining tumor-free after challenge: immunization with drug-treated EMT6 cells, challenge 8 days later
Human GSDMD [3] = biological target: T1, Human GSDMD (Homo sapiens, UniProt P57764); assay: microscale thermophoresis; type: binding; conditions: read-out: dissociation constant (KD) by MST; Alexa 647-labeled GSDMD
[4] = test system: GSDMD knockout (KO) THP-1 cells; assay: cell death of GSDMD KO THP-1 cells by PI uptake; type: cell-based, human; conditions: 5 or 20 μM
[5] = biological target: GSDMD (YFP at N terminus, RLuc at C terminus) (Homo sapiens, UniProt P57764); assay: BRET assay of GSDMD NT-CT distance; type: cell-based
Human GSDMD [6] = biological target: T1, Human GSDMD; assay: time-resolved fluorogenic; type: biochemical; conditions: read-out: EC50 of liposome leakage; human GSDMD 0.3 μM, Tb3+/DPA fluorescence
THP-1 cells = assay: cell death of WT THP-1 cells by PI uptake; type: cell-based, human
C191A GSDMD = C191A GSDMD (Homo sapiens, UniProt P57764, C191A); assay: liposome leakage assay with C191A GSDMD; type: biochemical
WT EMT6 tumors = assay: orthotopic WT EMT6 tumors in BALB/c mice; type: in vivo, mouse
recombinant caspase-1 = recombinant caspase-1 (Homo sapiens, UniProt P29466); assay: Caspase-1 activity assay; type: biochemical; conditions: in vitro, DMB 10 μM, Z-YVAD-AFC substrate
[7] = test system: full-length GSDMD in HEK293T cells; assay: activation of full-length GSDMD in transfected HEK293T cells; type: cell-based, human
[8] = test system: KP lung adenocarcinoma tumors; assay: subcutaneous KP tumors in WT and Gsdmd−/− C57BL/6 mice; type: in vivo, mouse
[9] = test system: human peripheral blood mononuclear cells (PBMCs); assay: cell death of human PBMCs; type: cell-based
EMT6 tumors in NSG mice = assay: EMT6 tumors in NSG mice; type: in vivo, mouse; conditions: NSG mice lacking functional lymphocytes
[10] = toxicity readouts in treated tumor-bearing mice; type: in vivo, mouse
[11] = test system: B16 cells that expressed GFP; assay: subcutaneous B16-GFP tumors in syngeneic mice; type: in vivo, mouse; conditions: 10 mg/kg every 3 days x6
[12] = test system: Gsdmd−/− and Gsdmd−/−Gsdme−/− EMT6 tumors; assay: orthotopic gasdermin-KO EMT6 tumors in BALB/c mice; type: in vivo, mouse; conditions: 10 mg/kg weekly
[13] = test system: immortalized mouse BMDMs (iBMDMs); assay: cell death of immortalized mouse BMDMs; type: cell-based; conditions: WT iBMDMs, 5 and 20 μM; not affected by caspase-1/11 ablation
NLRP3 = NLRP3 activation in LPS-primed THP-1 cells; type: cell-based, human; conditions: treatment after LPS priming
C38A GSDMD = C38A GSDMD (Homo sapiens, UniProt P57764, C38A); assay: liposome leakage assay with C38A GSDMD; type: biochemical; conditions: read-out: EC50 for activating GSDMD pore formation
EMT6 cells = assay: cell death of EMT6 cells in vitro; type: cell-based, mouse; conditions: for cell death at concentration used for vaccination: 60 μM; for LDH release: WT EMT6 cells; for potency at killing WT EMT6 cells: cell-titer Glo assay, in vitro
[14] = test system: B16 cells expressing human GSDMD-GFP
[15] = test system: primary mouse bone-marrow-derived macrophages (BMDMs); assay: cell death of primary mouse BMDMs; type: cell-based; conditions: WT and GSDMD KO primary BMDMs
CT26 colorectal cancer = assay: subcutaneous CT26 tumors in syngeneic mice; type: in vivo, mouse; conditions: 10 mg/kg
[16] = test system: Human GSDMD-GFP-expressing B16 cells; assay: pyroptosis of B16-GSDMD-GFP cells in vitro by PI uptake; type: cell-based, mouse; conditions: 10 μM DMB
4T1E tumors = assay: orthotopic 4T1E tumors in BALB/c mice, DMB and anti-PD-1; type: in vivo, mouse; conditions: DMB 1 mg/kg weekly; anti-PD-1 every 2 days
[17] = biological target: mCherry-tagged full-length GSDMD (Homo sapiens, UniProt P57764); assay: membrane localization of mCherry-tagged full-length GSDMD in HEK293T cells; type: cell-based; conditions: increasing concentrations of DMB
[18] = 10 mg/kg i.p. every 3 days x6 from day 5

T1 sequence (P57764 whole entry): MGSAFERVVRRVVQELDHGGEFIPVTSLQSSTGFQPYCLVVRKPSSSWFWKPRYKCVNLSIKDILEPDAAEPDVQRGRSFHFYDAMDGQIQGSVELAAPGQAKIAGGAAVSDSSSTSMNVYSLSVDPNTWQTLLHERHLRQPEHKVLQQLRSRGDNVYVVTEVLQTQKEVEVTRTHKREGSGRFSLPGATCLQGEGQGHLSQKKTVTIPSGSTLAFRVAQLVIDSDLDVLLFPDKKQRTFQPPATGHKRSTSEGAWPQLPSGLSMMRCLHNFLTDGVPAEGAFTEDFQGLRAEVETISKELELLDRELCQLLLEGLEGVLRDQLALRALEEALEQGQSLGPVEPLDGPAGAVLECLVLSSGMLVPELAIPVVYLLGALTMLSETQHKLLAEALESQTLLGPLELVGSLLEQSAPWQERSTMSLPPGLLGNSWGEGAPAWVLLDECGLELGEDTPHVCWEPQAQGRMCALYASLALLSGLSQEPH
Sequence of recombinant caspase-1 (P29466 120-297 limits assumed, species assumed): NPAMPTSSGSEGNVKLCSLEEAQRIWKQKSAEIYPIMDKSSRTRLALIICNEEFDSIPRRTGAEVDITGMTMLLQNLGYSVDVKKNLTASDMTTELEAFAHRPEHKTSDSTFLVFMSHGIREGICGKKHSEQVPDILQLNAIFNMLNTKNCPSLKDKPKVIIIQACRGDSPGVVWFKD
Sequence of recombinant caspase-1 (P29466 317-404 limits assumed, species assumed): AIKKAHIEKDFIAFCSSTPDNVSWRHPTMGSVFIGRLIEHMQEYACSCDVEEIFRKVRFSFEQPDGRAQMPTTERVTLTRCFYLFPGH
Sequence of GSDMD (YFP at N terminus, RLuc at C terminus) (P57764 whole entry): as the sequence (P57764 whole entry) above
Sequence of mCherry-tagged full-length GSDMD (P57764 whole entry): as above
Sequence of C191A GSDMD (P57764 whole entry C191A): as the sequence (P57764 whole entry) above, with C191A counted along it
Sequence of C38A GSDMD (P57764 whole entry C38A): as the sequence (P57764 whole entry) above, with C38A counted along it

## CC(C)(C)Nc1nc2cc(Cl)c(Cl)cc2nc1S(C)(=O)=O [DMB, 6,7-dichloro-2-methylsulfonyl-3-N-tert-butylaminoquinoxaline]
Mouse GSDMD
  fold reduced efficacy on mouse GSDMD vs human GSDMD: ~ 5 fold
[1]
  cell death by PI uptake, WT vs D275A GSDMD rescue: comparable cell death
[2]
  activation of other human gasdermins: activated human GSDMD but not other human gasdermins
EMT6 tumor challenge; immunization with DMB-treated EMT6 cells
  tumor size, times smaller than in mice immunized with MMC-treated cells: 6 times
EMT6 tumor challenge
  mice remaining tumor-free after challenge: Three of 12
Human GSDMD [3]
  Kd: 1100 ± 400 nM
[4]
  cell death by PI uptake: minimally
[5]
  BRET signal compared with DMSO control: decreased the BRET signal
Human GSDMD [6]
  EC50: 700 nM
THP-1 cells; WT THP-1 cells, 5 or 20 μM
  cell death by PI uptake: induced significant cell death within 2 h
THP-1 cells; read-out: EC50 of DMB-mediated cell death, WT THP-1, PI positivity at 4 h
  EC50: 4.8 ± 0.4 µM
C191A GSDMD
  activation of GSDMD pore formation: not activated
WT EMT6 tumors; 10 mg/kg weekly for 2 weeks, WT EMT6
  tumor growth: significantly suppressed
WT EMT6 tumors; 10 mg/kg weekly, WT EMT6 tumors
  GzmB/PFN expression and stimulated IFN-γ/TNF-α production of CD8+ and NK TILs: significantly increased
Recombinant caspase-1
  effect on recombinant caspase-1 activity: neither inhibited nor activated
[7]
  activation of C191R and C191F full-length GSDMD mutants: could not be activated
[8]
  tumor growth: similarly inhibited
[9]
  induction of PI positivity, LDH release, ATP release: robustly induced
EMT6 tumors in NSG mice
  tumor growth: did not suppress the growth
[10]; B16 tumor-bearing mice, 10 mg/kg every 3 days x6
  mouse body weight: no effect
[10]; EMT6-bearing mice, 10 mg/kg
  blood counts: normal blood counts
[11]
  tumor growth: no significant effect
[12]; Gsdmd−/− EMT6
  tumor growth: not significantly reduced
[12]; Gsdmd−/−Gsdme−/− EMT6
  tumor growth: not significantly reduced
[13]
  cell death: triggered cell death
NLRP3
  NLRP3 activation (ASC speck formation, IL-1β release): did not significantly activate NLRP3
C38A GSDMD
  EC50: ~900 nM
EMT6 cells; EMT6 cells
  ATP release into supernatants: peaked 2 and 3 h
EMT6 cells; EMT6 cells, 5 h
  cell death at concentration used for vaccination: 60–70%
EMT6 cells
  LDH release: beginning within an hour of treatment
  potency at killing WT EMT6 cells: similarly potent
[14]; [18]
  surviving mice cured with no palpable tumor: 3
  tumor growth: strongly inhibited tumor growth
[14]; 10 mg/kg i.p. every 3 days x6 from day 5, clones 9 and 10
  mice surviving to the end of the experiment: 5 of 16
[14]; CD3+ CD8+ immunofluorescence
  T cells per tumor area, DMB vs. vehicle: 8.3 fold
[14]; MHCII+ CD11c+ immunofluorescence
  DCs per tumor area, DMB vs. vehicle: 25.2 fold
[14]; treatment from day 10, every 3 days x6
  survival of mice bearing smaller tumors, delayed treatment: two of the four
[15]
  GSDMD dependence of cell death induction: depended on GSDMD
CT26 colorectal cancer
  tumor growth: A similar reduction in tumor growth
[16]
  sensitivity to DMB-induced pyroptosis by PI uptake: became sensitive to DMB-induced pyroptosis
4T1E tumors
  tumor growth / tumor volume vs vehicle: does not inhibit tumor growth on its own
[17]
  membrane localization of mCherry-tagged full-length GSDMD: up to 88%

## CCN(CC)C(=S)SSC(=S)N(CC)CC [disulfiram, reference compound]
[9]; pretreatment before DMB
  effect of pretreatment on DMB-induced cell death: strongly suppressed cell death

## CC(=O)N[C@@H](Cc1ccccc1)C(=O)N[C@@H](CC(C)C)C(=O)N[C@H](C(=O)N[C@@H](CC(=O)O)C(=O)CCl)[C@@H](C)O [AC-FLTD-CMK] (Ac-FLTD-CH2Cl)
EMT6 cells; EMT6 cells
  effect of caspase inhibition on DMB-induced SYTOX Green uptake: did not affect DMB-induced pyroptosis

## CO[C@@]12[C@H](COC(N)=O)C3=C(C(=O)C(C)=C(N)C3=O)N1C[C@@H]1N[C@@H]12 [MMC, mitomycin C]
EMT6 tumor challenge
  mice remaining tumor-free after challenge: tumors grew in all the mice
EMT6 cells; EMT6 cells
  ATP release into supernatants: did not trigger ATP release
EMT6 cells; EMT6 cells, 20 h
  cell death at concentration used for vaccination: 60–70%
EMT6 cells
  LDH release: much less and delayed LDH release
  potency at killing WT EMT6 cells: similarly potent
